Test results: patent US20230000870A1, “METHODS OF TREATING CANCER IN BIOMARKER-IDENTIFIED PATIENTS WITH INHIBITORS OF CYCLIN-DEPENDENT KINASE 7 (CDK7)” (Syros Pharmaceuticals, Inc., priority 2019, published 2023)

Tests used:
[1] = target: T1, CDK12 (aa686-1082)/Cyclin K complex (Homo sapiens, UniProt Q9NYV4); assay: CDK12 kinase inhibition assay (Caliper/LabChip EZ Reader); format: biochemical; conditions: CDK12 (aa686-1082)/Cyclin K 50 nM, ATP 2 mM, 3 hr at 27° C.
T1 construct: CDK12 (aa686-1082)/Cyclin K complex
Method in brief: (§1)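 Incubation times were set for ~20% (±5%) peptide phosphorylation by uninhibited enzyme: CDK7 35 min, CDK2 35 min (0.5 nM complex, 2 μM 5-FAM-CDK7tide, 2 mM MgCl2), CDK12 3 hr (50 nM, 2 μM 5-FAM-CDK9tide, 2 mM MgCl2), CDK9 15 min (8 nM, 2 μM 5-FAM-CDK9tide, 10 mM MgCl2). Read-out on LabChip EZ Reader, 27° C.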

A673 cells = assay: Inhibition of proliferation of A673 cells (CyQUANT, 72 hour); format: cell-based, human; conditions: read-out: Inhibition of Proliferation of A673 Cells (calculated IC50)
Method in brief: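 Read-out is CyQUANT after a 72 h proliferation period, following the kit protocol. Dilution series in 0.5-log steps over the stated 4 μM to […] range. Cells are A673 (human Ewing's sarcoma), grown in DMEM with 10% FBS and 1 mM sodium pyruvate at 37 °C under 5% CO2.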

[2] = target: CDK7/Cyclin H/MAT1 complex (Homo sapiens, UniProt P50613); assay: CDK7 kinase inhibition assay (Caliper/LabChip EZ Reader); format: biochemical; conditions: CDK7/Cyclin H/MAT1 6 nM, ATP 2 mM, 35 min at 27° C.
Method in brief: as §1

CDK2/Cyclin E1 complex = CDK2/Cyclin E1 complex (Homo sapiens, UniProt P24941); assay: CDK2 kinase inhibition assay (Caliper/LabChip EZ Reader); format: biochemical; conditions: CDK2/Cyclin E1 0.5 nM, ATP 2 mM, 35 min at 27° C.
Method in brief: as §1

CDK9/Cyclin T1 complex = CDK9/Cyclin T1 complex (Homo sapiens, UniProt P50750); assay: CDK9 kinase inhibition assay (Caliper/LabChip EZ Reader); format: biochemical; conditions: CDK9/Cyclin T1 8 nM, ATP 2 mM, 15 min at 27° C.
Method in brief: as §1

Sequence of CDK9/Cyclin T1 complex (P50750 whole entry): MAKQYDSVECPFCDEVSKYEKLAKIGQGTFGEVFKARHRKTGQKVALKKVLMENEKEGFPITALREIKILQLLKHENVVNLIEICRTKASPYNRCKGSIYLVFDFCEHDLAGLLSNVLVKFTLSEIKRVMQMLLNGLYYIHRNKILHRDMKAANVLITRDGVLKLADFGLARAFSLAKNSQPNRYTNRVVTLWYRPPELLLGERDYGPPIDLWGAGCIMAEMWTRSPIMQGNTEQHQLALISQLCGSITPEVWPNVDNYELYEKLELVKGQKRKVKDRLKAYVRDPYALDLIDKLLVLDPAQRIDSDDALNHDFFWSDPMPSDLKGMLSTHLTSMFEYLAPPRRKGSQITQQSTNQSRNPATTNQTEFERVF
Sequence of CDK9/Cyclin T1 complex (O60563 whole entry partner): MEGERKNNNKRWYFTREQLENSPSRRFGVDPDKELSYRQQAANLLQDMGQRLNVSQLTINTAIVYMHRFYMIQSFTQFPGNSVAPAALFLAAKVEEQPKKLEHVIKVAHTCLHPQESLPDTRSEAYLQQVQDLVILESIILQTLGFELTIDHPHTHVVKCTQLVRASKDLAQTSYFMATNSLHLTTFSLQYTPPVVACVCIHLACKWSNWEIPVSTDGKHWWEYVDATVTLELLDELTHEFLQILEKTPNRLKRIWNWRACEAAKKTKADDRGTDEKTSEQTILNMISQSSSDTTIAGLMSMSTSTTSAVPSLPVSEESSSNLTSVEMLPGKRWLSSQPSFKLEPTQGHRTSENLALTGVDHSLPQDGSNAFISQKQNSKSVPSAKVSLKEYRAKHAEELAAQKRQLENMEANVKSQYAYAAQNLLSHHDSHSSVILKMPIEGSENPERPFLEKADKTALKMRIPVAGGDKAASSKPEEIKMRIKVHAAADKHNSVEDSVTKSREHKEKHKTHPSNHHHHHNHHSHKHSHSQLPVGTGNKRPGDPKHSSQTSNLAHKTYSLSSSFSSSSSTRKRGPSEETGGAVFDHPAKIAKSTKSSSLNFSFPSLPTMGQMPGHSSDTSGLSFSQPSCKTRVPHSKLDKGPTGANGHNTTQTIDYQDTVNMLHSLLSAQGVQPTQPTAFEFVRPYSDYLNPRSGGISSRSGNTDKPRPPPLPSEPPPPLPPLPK
Sequence of CDK7/Cyclin H/MAT1 complex (P50613 whole entry): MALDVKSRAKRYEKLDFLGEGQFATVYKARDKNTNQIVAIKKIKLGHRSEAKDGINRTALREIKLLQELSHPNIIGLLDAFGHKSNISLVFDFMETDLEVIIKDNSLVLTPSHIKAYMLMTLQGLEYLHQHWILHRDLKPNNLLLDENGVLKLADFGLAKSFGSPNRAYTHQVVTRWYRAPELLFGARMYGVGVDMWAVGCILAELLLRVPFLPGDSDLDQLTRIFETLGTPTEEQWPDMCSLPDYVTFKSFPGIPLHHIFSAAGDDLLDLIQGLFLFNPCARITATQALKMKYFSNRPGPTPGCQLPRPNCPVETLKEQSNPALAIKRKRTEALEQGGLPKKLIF
Sequence of CDK7/Cyclin H/MAT1 complex (P51946 whole entry partner): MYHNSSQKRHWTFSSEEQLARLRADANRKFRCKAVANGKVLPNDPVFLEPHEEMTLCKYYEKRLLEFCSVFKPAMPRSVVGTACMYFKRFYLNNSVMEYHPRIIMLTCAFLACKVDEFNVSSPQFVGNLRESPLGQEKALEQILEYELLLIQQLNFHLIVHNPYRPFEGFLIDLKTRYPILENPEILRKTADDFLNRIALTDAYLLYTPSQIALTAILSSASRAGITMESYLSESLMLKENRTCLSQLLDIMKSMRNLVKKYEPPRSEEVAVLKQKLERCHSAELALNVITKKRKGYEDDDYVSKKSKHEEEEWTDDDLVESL
Sequence of CDK7/Cyclin H/MAT1 complex (P51948 whole entry partner): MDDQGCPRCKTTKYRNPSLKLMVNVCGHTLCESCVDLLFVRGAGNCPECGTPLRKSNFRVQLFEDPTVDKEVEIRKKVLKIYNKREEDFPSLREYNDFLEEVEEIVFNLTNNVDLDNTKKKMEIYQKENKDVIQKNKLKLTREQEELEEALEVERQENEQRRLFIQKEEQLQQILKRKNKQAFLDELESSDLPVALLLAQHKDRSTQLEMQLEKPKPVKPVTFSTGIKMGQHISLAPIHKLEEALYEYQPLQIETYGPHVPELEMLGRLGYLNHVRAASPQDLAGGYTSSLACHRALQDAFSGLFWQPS
T1 sequence (Q9NYV4 686-1082): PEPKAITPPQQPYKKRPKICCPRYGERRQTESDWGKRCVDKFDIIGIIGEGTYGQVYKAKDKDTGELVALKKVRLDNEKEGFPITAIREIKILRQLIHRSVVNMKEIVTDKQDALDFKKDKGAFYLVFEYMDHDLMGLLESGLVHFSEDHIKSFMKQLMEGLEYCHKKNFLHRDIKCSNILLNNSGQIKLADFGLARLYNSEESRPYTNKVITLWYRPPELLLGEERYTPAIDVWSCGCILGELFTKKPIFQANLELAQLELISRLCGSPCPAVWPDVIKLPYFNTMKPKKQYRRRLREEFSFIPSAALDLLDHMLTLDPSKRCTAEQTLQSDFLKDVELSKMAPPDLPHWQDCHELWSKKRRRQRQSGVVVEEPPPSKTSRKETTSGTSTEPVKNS
T1 sequence (O75909 whole entry partner, the tested form may be a part): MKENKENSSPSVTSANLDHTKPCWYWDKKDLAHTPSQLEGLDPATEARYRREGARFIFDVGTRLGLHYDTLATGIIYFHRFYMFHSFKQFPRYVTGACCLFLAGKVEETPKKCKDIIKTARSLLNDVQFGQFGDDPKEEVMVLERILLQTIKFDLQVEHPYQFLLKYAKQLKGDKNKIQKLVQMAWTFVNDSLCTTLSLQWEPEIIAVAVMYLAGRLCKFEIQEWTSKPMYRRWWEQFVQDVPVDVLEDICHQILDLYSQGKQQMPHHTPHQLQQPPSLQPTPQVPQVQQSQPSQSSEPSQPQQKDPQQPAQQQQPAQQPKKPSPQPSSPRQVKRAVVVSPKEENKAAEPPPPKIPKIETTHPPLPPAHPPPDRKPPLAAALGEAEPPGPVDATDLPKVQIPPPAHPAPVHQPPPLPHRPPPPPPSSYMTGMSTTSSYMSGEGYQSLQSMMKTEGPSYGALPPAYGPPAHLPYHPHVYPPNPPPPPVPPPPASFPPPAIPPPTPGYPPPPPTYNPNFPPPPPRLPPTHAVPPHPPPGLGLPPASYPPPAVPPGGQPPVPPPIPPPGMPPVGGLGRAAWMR

Row | SMILES | IC50 [1] | IC50 [2] | IC50 (CDK2/Cyclin E1 complex) | IC50 (CDK9/Cyclin T1 complex) | IC50 (A673 cells)
1 | Cn1cc(-c2ccc3[nH]cc(-c4nc(NC5CCCNC5)ncc4C(F)(F)F)c3c2)cn1 (stereo not drawn) [Compound 178] | 0.2 to 5 µM | 0.02 to 0.2 µM | ≥ 5 µM | ≥ 5 µM | 0.2 to 5 µM
2 | CC(O)c1cnc(NC2CCCNC2)nc1-c1c[nH]c2ccccc12 (stereo not drawn) [Compound 234] | ≥ 5 µM | 0.2 to 5 µM | ≥ 5 µM | ≥ 5 µM | < 0.02 µM
3 | CN1CCCC(Nc2ncc(Cl)c(-c3c[nH]c4ccccc34)n2)C1 (stereo not drawn) [Compound 136] | 0.2 to 5 µM | < 0.02 µM | 0.2 to 5 µM | 0.2 to 5 µM | 0.02 to 0.2 µM
4 | CC(C)c1cnc(N[C@H]2CCCNC2)nc1-c1n[nH]c2nc(C#N)ccc12 [Compound 276] | ≥ 5 µM | 0.02 to 0.2 µM | ≥ 5 µM | ≥ 5 µM | 0.2 to 5 µM
5 | O=C(O)c1cccc2c(-c3nc(NC4CCCNC4)ncc3Cl)c[nH]c12 (stereo not drawn) [Compound 154] | 0.2 to 5 µM | 0.02 to 0.2 µM | ≥ 5 µM | 0.2 to 5 µM | 0.2 to 5 µM
6 | Fc1cccc2c(-c3nc(N[C@H]4CCCNC4)ncc3C(F)(F)F)n[nH]c12 [Compound 156] | 0.2 to 5 µM | < 0.02 µM | 0.2 to 5 µM | 0.2 to 5 µM | < 0.02 µM
7 | Cc1ccc2[nH]cc(-c3nc(NC4CCCNC4)ncc3Cl)c2c1 (stereo not drawn) [Compound 108] | 0.2 to 5 µM | 0.02 to 0.2 µM | 0.2 to 5 µM | 0.2 to 5 µM | 0.2 to 5 µM
8 | Cn1cc(-c2ccc3c(-c4nc(NC5CCCNC5)ncc4C(F)(F)F)c[nH]c3c2)cn1 (stereo not drawn) [Compound 181] | 0.2 to 5 µM | < 0.02 µM | 0.2 to 5 µM | 0.2 to 5 µM | < 0.02 µM
9 | CCc1cnc(NC2CCCNC2)nc1-c1c[nH]c2ccccc12 (stereo not drawn) [Compound 105] | 0.2 to 5 µM | 0.02 to 0.2 µM | ≥ 5 µM | ≥ 5 µM | 0.02 to 0.2 µM
10 | CNC(=O)c1ccc2c(-c3nc(NC4CCCNC4)ncc3C(F)(F)F)c[nH]c2c1 (stereo not drawn) [Compound 186] | 0.2 to 5 µM | < 0.02 µM | 0.2 to 5 µM | 0.2 to 5 µM | 0.02 to 0.2 µM
11 | CCOP(=O)(OCC)c1cccc2c(-c3nc(NC4CCCNC4)ncc3C(F)(F)F)c[nH]c12 (stereo not drawn) [Compound 168] | ≥ 5 µM | 0.2 to 5 µM | ≥ 5 µM | ≥ 5 µM | 0.2 to 5 µM
12 | CC1(C)CCNC[C@@H]1Nc1ncc(C(F)(F)F)c(-c2c[nH]c3ccccc23)n1 [Compound 209] | ≥ 5 µM | 0.2 to 5 µM | ≥ 5 µM | ≥ 5 µM | 0.02 to 0.2 µM
13 | FC(F)(F)c1cnc(N[C@H]2CCCNC2)nc1-c1c[nH]c2cc(-c3ccncc3)ccc12 [Compound 224] | 0.2 to 5 µM | < 0.02 µM | 0.2 to 5 µM | 0.2 to 5 µM | 0.02 to 0.2 µM
14 | CCc1cnc(NC2CCCNC2)nc1-c1n[nH]c2cc(C#N)ccc12 (stereo not drawn) [Compound 275] | 0.2 to 5 µM | < 0.02 µM | 0.2 to 5 µM | 0.2 to 5 µM | 0.02 to 0.2 µM
15 | Clc1cnc(NC2CN3CCC2CC3)nc1-c1c[nH]c2ccccc12 (stereo not drawn) [Compound 131] | ≥ 5 µM | ≥ 5 µM | ≥ 5 µM | ≥ 5 µM | 0.2 to 5 µM
16 | CC1CCNCC1Nc1ncc(Cl)c(-c2c[nH]c3ccccc23)n1 (stereo not drawn) [Compound 125] | ≥ 5 µM | 0.02 to 0.2 µM | ≥ 5 µM | ≥ 5 µM | 0.2 to 5 µM
17 | FC(F)(F)c1cnc(NC2CCC3(CC3)NC2)nc1-c1c[nH]c2ccccc12 (stereo not drawn) [Compound 212] | 0.2 to 5 µM | < 0.02 µM | 0.2 to 5 µM | 0.2 to 5 µM | < 0.02 µM
18 | FC1CCNCC1Nc1ncc(Cl)c(-c2c[nH]c3ccccc23)n1 (stereo not drawn) [Compound 121] | 0.2 to 5 µM | 0.02 to 0.2 µM | 0.2 to 5 µM | 0.2 to 5 µM | 0.02 to 0.2 µM
19 | Clc1cnc(NC2CCCNC2)nc1-c1c[nH]c2ccccc12 (stereo not drawn) [Compound 101] | 0.2 to 5 µM | 0.2 to 5 µM | 0.2 to 5 µM | 0.2 to 5 µM | 0.02 to 0.2 µM
20 | C#Cc1cnc(N[C@H]2CCCNC2)nc1-c1cn(C)c2ccccc12 [Compound 195] | ≥ 5 µM | 0.2 to 5 µM | ≥ 5 µM | ≥ 5 µM | 0.02 to 0.2 µM

Further lines, with some results ahead:

Row | IC50 [1] | IC50 [2] | IC50 (CDK2/Cyclin E1 complex) | IC50 (CDK9/Cyclin T1 complex) | SMILES | IC50 (A673 cells)
21 | 0.2 to 5 µM | < 0.02 µM | 0.2 to 5 µM | 0.2 to 5 µM | FC(F)(F)c1cnc(N[C@H]2CCCNC2)nc1-c1c[nH]c2ccc(Cl)cc12 [Compound 160] | < 0.02 µM
22 | 0.2 to 5 µM | < 0.02 µM | 0.2 to 5 µM | 0.2 to 5 µM | Cc1n[nH]cc1-c1ccc2[nH]cc(-c3nc(NC4CCCNC4)ncc3C(F)(F)F)c2c1 (stereo not drawn) [Compound 229] | < 0.02 µM
23 | 0.2 to 5 µM | < 0.02 µM | 0.2 to 5 µM | 0.2 to 5 µM | FC(F)(F)c1cnc(NC2CCCNC2)nc1-c1c[nH]c2cc(-c3cccnc3)ccc12 (stereo not drawn) [Compound 223] | 0.02 to 0.2 µM
24 | 0.2 to 5 µM | 0.02 to 0.2 µM | 0.2 to 5 µM | 0.2 to 5 µM | CC1NCCCC1Nc1ncc(Cl)c(-c2c[nH]c3ccccc23)n1 (stereo not drawn) [Compound 114] | 0.02 to 0.2 µM
25 | 0.2 to 5 µM | < 0.02 µM | 0.2 to 5 µM | 0.2 to 5 µM | FC1(F)CNC[C@@H](Nc2ncc(C(F)(F)F)c(-c3c[nH]c4ccccc34)n2)C1 [Compound 236] | 0.02 to 0.2 µM
26 | 0.2 to 5 µM | < 0.02 µM | 0.2 to 5 µM | 0.2 to 5 µM | CCOP(C)(=O)c1cccc2c(-c3nc(NC4CCCNC4)ncc3C(F)(F)F)c[nH]c12 (stereo not drawn) [Compound 179] | < 0.02 µM
27 | 0.2 to 5 µM | 0.02 to 0.2 µM | ≥ 5 µM | ≥ 5 µM | CC(=O)c1cnc(NC2CCCNC2)nc1-c1c[nH]c2ccccc12 (stereo not drawn) [Compound 208] | 0.02 to 0.2 µM
28 | 0.02 to 0.2 µM | < 0.02 µM | 0.2 to 5 µM | 0.2 to 5 µM | CC1(C)CNC[C@@H](Nc2ncc(C(F)(F)F)c(-c3c[nH]c4ccccc34)n2)C1 [Compound 243] | < 0.02 µM
29 | 0.02 to 0.2 µM | < 0.02 µM | 0.02 to 0.2 µM | 0.2 to 5 µM | N#Cc1cccc2c(-c3nc(NC4CCCNC4)ncc3C(F)(F)F)c[nH]c12 (stereo not drawn) [Compound 153] | < 0.02 µM
30 | 0.02 to 0.2 µM | < 0.02 µM | 0.02 to 0.2 µM | 0.2 to 5 µM | CNC(=O)C1CNCC(Nc2ncc(C(F)(F)F)c(-c3c[nH]c4ccccc34)n2)C1 (stereo not drawn) [Compound 253] | 0.02 to 0.2 µM
